1 molecule from US6645991B1, “αvβ3 integrin inhibitors” (Merck Patent GmbH, priority 1999, dated 2003) can be followed below.

The experiment has as its target receptor αvβ3 (Homo sapiens, UniProt P05106+P06756). Briefly: vitronectin binding test (method of Smith et al.). The source says: For the vitronectin binding test, the IC50 value is given, i.e. the concentration in nmol/litre which inhibits 50% of the vitronectin binding to the corresponding isolated receptor (method of Smith et al., J. Biol. Chem. 265, 12267-71, 1990).

Broadly, the IC50 is the midpoint of a concentration-inhibition curve. Lower therefore signals greater potency in that assay.

Chain of receptor αvβ3 (P06756 31-889 limits assumed): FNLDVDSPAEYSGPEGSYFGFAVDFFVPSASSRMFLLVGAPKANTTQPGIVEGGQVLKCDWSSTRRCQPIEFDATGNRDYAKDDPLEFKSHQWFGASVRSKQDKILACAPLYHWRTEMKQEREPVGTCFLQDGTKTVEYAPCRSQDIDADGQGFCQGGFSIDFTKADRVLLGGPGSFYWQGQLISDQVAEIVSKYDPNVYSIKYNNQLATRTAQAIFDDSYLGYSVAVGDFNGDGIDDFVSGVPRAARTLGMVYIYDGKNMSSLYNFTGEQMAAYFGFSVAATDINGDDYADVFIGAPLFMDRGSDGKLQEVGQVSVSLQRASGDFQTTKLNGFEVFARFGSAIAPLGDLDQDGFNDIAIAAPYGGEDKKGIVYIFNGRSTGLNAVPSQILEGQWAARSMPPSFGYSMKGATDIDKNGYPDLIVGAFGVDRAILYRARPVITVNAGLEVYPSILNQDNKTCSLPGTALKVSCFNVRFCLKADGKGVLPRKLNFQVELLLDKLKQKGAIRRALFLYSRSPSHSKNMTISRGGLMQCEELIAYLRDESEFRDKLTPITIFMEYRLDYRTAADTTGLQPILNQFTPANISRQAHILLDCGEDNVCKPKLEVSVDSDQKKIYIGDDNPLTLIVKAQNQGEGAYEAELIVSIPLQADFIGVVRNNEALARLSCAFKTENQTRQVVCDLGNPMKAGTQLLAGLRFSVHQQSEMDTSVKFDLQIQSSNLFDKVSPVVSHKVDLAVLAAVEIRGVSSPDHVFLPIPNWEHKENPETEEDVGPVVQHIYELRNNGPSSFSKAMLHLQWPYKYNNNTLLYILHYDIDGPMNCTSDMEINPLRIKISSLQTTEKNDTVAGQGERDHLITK
Chain of receptor αvβ3 (P06756 891-1048 limits assumed): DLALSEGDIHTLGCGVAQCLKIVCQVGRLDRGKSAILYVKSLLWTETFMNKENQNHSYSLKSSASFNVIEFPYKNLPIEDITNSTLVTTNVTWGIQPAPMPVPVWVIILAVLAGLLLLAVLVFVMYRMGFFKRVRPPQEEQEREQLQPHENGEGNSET
Chain of receptor αvβ3 (P05106 27-788): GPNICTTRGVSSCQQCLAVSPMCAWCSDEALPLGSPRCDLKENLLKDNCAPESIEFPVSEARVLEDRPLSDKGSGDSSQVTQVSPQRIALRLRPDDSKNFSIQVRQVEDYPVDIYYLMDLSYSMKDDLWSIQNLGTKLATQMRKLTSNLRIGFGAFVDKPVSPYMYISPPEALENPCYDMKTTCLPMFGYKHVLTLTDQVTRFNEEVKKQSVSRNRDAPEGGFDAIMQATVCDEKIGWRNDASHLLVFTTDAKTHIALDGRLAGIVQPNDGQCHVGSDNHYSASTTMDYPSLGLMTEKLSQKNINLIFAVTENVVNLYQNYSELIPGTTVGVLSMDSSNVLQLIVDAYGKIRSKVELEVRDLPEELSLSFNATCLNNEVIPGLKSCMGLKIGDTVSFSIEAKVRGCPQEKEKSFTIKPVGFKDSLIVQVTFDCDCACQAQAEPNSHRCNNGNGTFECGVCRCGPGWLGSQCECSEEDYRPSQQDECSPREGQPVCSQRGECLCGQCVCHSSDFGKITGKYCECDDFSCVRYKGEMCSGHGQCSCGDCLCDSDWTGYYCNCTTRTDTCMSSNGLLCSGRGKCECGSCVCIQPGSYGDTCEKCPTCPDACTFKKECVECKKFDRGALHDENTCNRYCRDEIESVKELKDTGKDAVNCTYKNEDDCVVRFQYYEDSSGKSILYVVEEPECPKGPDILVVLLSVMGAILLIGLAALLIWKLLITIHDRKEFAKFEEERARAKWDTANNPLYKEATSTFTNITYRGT

For the molecule `O=C(O)CC(Cc1ccc(OCCCNc2ccccn2)cc1)c1ccccc1` (centres unmarked) [3-phenyl-4-{4-[3-(pyridin-2-ylamino)propoxy]phenyl}butyric acid], the IC50 (concentration which inhibits 50% of the vitronectin binding to the isolated receptor) amounted to 5.3 nM. Where the note is “qualitative statement”, the “Inhibition of vitronectin binding to the receptor αvβ3” value is “demonstrated experimentally”.
